Patent publication US9440963B2, “Compositions, formulations and methods for treating ocular diseases” (Aerpio Therapeutics Inc., priority 2013, dated 2016)
In brackets after ≈: the same amount, converted by molar mass. Several values for one entry are separate records, joined by “and”; a condition that tells them apart may be missing. Equal entries are not always repeated.

Legend:
[1] = Room temperature aqueous solubility with solubilizing agents (Example 36); format: physicochemical
Text: The room temperature aqueous solubility (mg/mL) of the a compound (4-{(S)-2-[(S)-2-methoxycarbonylamino)-3-phenylpropanamido]-2-[2-(thiophen-2-yl)thiazol-4-yl]ethyl}phenylsulfamic acid) in water, HPβCD, Poloxamer 407, and sulfobutylether-β-cyclodextrin, is provided in TABLE XXVII. Solubility in saline for the test compound is reduced presumably due to the common ion effect.
The solubility (mg/mL) of the test compound in mixtures of HPβCD and PEG400 is illustrated in TABLE XXVIII.

[2] = test system: human subjects with visual acuity loss due to diabetic macular edema; test: Central foveal/retinal thickness by ocular coherence tomography in diabetic macular edema study (Example 35); format: in vivo
Procedure: At any time during the course of the study, investigators could administer additional therapy consisting of intravitreal injection of an anti-VEGF agent, for example, ranibizumab, bevacizumab and/or aflibercept, if considered by the investigator to be medically necessary. Retinal thickness as measured by ocular coherence tomography and best corrected visual acuity as measured by a standard vision test (ETDRS) were assessed at regular intervals during the 28 day active treatment phase and through the 2 month post-treatment observation phase, (Screening, Day 1 [baseline], Day 7, Day 14, Day 21, Day 28, Day 42, Day 56 and Day 84). The main efficacy outcomes for the study were change in CRT and visual acuity over time with treatment. […] The mean change in Central Foveal Thickness was −289 μm, approximately double the reduction seen after ranibizumab injection in the study in FIG. 1. FIG. 5 represents the results of a single patient. The eye having the greater Central Foveal Thickness was chosen as the Study Eye. […] At week 3 (21 days, indicated by arrow) the fellow eye was treated with 0.5 mg of ranibizumab by injection. At week 6 (42 days, indicated by arrow) the treated eye was treated with 0.5 mg of ranibizumab. […] As a result, there was a pronounced reduction in CFT in the study eye from day 21 to day 28 (approximately 250 µm). […] At week 6, the study eye was treated with an intravitreal injection of 0.5 mg of ranibizumab. […] Compared to the study depicted in FIG. 1 wherein the average change in CFT at one month after ranibizumab injection was approximately […], the combination disclosed method provided substantially greater reductions at 2-4 weeks following ranibizumab injection. FIG. 6 represents the results of a single patient. The eye having the greater Central Foveal Thickness was chosen as the Study Eye. […] At week 4 (28 days, indicated by arrow) the fellow eye was rescued with 2 mg of aflibercept. […] At week 6 (42 days, indicated by arrow) the study eye was rescued with 2 mg of aflibercept. […] Unlike the results depicted for the ranibizumab protocol, there was no evidence of systemically delivered aflibercept to the Fellow Eye.

solubility in saline ([1]; room temperature, compared with water)	Solubility ([1]; aqueous with cosolvent or surfactant or cyclodextrin) [mg/mL]	Solubility ([1]; water) [mg/mL]	Structure (SMILES)	Central Foveal Reduction, single patient eye ([2]; 5 mg subcutaneously twice daily for 28 days, subsequently ranibizumab (0.3 or 0.5 mg) or aflibercept (2 mg) intravitreal, 14-28 days post ranibizumab or aflibercept, 7 eyes)	fall of Central Foveal Thickness of the fellow eye ([2]; single patient (FIG. 5), 5 mg s.c. twice daily from day one, fellow eye 0.5 mg ranibizumab at week 3, by week 4 (28 days)) [μm]	overall reduction in CFT of the study eye ([2]; single patient (FIG. 5), by week 8, after 0.5 mg ranibizumab at week 6)	reduction in CFT in the study eye ([2]; single patient (FIG. 5), from day 21 to day 28)	reduction of CFT in the non-treated eye from onset of the study ([2]; single patient (FIG. 6)) [μm]	reduction of CFT in the study eye from onset of the study ([2]; single patient (FIG. 6))	CFT reduction of the Fellow eye after rescue ([2]; single patient (FIG. 6), 5 mg s.c. twice daily from day one, fellow eye rescued with 2 mg aflibercept at week 4)	CFT reduction of the Study eye after rescue ([2]; single patient (FIG. 6), study eye rescued with 2 mg aflibercept at week 6)
reduced			COC(=O)N[C@@H](Cc1ccccc1)C(=O)N[C@@H](Cc1ccc(NS(=O)(=O)O)cc1)c1csc(-c2cccs2)n1	50-100 μm and 150-200 μm and 200-250 μm and 300-350 μm and 350-400 μm and 450-500 μm	350	approximately 500 μm	approximately 250 µm	~280	approximately 300 μm	approximately 400 μm	approximately 300 μm
	42 (≈ 71.6 mM)	38 (≈ 64.8 mM)	COC(=O)N[C@@H](Cc1ccccc1)C(=O)N[C@@H](Cc1ccc(NS(=O)(=O)O)cc1)c1nc(-c2cccs2)cs1								
